Measured values from PMC7422722, “The complete functional characterisation of the terpene synthase family in tomato” (The New Phytologist, 2020).

Key:
Assay type in all cases: biochemical
TPS27 = target: T1, TPS27 (Solanum lycopersicum, UniProt G5CV48); experiment: in vitro assay, GC-MS of products; settings: product alpha-farnesene
T1 construct: recombinant, E. coli pET32b or pET28a, His-tagged, purified
T1 sequence (G5CV48 1-554): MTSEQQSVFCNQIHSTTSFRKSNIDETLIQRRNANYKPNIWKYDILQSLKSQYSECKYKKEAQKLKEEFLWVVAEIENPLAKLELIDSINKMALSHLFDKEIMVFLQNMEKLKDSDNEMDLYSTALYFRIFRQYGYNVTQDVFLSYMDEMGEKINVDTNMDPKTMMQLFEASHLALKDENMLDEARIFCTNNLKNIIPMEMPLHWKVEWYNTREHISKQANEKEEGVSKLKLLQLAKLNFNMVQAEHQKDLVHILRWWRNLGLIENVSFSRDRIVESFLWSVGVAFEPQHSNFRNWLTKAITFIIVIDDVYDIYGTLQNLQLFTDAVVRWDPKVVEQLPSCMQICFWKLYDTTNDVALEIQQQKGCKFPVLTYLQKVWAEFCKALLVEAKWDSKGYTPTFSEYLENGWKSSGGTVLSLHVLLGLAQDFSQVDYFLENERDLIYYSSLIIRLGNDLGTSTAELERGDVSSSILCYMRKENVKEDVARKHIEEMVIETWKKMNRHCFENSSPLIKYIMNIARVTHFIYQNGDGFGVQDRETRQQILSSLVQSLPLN

TPS52 = target: T2, TPS52 (Solanum lycopersicum, UniProt A0A6H0JLZ2); experiment: in vitro assay, GC-MS of products
T2 construct: recombinant, E. coli (codon-optimised gene made), His-tagged, purified; full length 551 residues; gene on chromosome 7
T2 sequence (A0A6H0JLZ2 1-551): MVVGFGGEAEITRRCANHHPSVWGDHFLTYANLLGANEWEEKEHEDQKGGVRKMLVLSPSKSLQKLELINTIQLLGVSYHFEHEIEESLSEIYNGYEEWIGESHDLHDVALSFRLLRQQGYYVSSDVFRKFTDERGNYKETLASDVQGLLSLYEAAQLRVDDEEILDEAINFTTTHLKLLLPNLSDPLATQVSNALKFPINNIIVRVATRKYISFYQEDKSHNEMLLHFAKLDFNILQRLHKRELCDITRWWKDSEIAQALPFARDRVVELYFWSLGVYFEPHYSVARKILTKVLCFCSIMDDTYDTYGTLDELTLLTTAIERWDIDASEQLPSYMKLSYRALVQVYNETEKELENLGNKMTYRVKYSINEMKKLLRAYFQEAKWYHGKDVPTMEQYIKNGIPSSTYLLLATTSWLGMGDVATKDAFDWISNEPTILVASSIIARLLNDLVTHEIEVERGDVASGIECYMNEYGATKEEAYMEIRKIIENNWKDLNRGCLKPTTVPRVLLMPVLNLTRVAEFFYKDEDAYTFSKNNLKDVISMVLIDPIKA

TPS51 = target: T3, TPS51 (Solanum lycopersicum, UniProt A0A6H0JLJ2); experiment: in vitro assay, GC-MS of products
T3 construct: recombinant, E. coli (codon-optimised gene made), His-tagged, purified; full length 550 residues; gene on chromosome 7
T3 sequence (A0A6H0JLJ2 1-550): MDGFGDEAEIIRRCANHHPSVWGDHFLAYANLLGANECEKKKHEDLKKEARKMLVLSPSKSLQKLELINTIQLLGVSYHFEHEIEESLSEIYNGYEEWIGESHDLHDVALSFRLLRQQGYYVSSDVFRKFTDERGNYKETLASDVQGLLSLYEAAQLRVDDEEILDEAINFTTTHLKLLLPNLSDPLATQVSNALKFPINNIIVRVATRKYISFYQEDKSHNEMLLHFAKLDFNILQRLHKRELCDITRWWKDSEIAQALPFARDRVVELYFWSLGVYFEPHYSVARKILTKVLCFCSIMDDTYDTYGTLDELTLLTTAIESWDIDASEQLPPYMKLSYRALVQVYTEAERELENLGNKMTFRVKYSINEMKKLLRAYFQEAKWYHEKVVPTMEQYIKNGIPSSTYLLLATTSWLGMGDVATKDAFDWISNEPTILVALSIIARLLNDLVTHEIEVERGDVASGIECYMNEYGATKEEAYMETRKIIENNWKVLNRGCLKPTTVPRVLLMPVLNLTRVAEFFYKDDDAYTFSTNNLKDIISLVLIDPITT

GGPPS1 = target: T4, GGPPS1 (Solanum lycopersicum, UniProt Q1A7T0); experiment: in vitro prenyltransferase assay, products hydrolysed, GC-MS; settings: co-substrate IPP; without SSU
T4 construct: gene GGPS1

TPS47 = target: T5, TPS47 (Solanum lycopersicum, UniProt K4BEJ5); experiment: in vitro assay, headspace SPME GC-MS; settings: product isoprene; 42 °C headspace collection
T5 construct: gene LOC101258440; recombinant, E. coli (codon-optimised gene made), His-tagged, purified; full length 562 residues; gene on chromosome 3
T5 sequence (K4BEJ5 1-562): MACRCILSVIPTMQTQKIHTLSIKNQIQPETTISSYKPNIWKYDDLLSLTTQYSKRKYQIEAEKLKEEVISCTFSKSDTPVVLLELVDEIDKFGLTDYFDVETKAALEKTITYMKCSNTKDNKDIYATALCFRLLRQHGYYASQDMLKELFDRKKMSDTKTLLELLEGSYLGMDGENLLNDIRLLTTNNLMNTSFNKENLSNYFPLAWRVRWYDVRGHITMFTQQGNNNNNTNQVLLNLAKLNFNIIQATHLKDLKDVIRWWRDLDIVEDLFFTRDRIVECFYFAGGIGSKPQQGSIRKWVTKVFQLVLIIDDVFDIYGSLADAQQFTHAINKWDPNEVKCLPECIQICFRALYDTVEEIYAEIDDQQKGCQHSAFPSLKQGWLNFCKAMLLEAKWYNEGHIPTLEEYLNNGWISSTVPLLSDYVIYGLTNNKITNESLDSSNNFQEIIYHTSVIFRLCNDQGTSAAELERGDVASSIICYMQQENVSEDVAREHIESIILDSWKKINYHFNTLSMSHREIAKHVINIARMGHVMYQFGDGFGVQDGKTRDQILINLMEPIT

GGPPS2 = target: T6, GGPPS2 (Solanum lycopersicum, UniProt Q1A7S9); experiment: in vitro prenyltransferase assay, products hydrolysed, GC-MS; settings: co-substrate IPP; without SSU
T6 construct: gene GGPS2

TPS25 = target: T7, TPS25 (Solanum lycopersicum, UniProt G5CV49); experiment: in vitro assay, GC-MS of products; settings: product mostly beta-ocimene
T7 construct: recombinant, E. coli pET32b or pET28a, His-tagged, purified
T7 sequence (G5CV49 1-576): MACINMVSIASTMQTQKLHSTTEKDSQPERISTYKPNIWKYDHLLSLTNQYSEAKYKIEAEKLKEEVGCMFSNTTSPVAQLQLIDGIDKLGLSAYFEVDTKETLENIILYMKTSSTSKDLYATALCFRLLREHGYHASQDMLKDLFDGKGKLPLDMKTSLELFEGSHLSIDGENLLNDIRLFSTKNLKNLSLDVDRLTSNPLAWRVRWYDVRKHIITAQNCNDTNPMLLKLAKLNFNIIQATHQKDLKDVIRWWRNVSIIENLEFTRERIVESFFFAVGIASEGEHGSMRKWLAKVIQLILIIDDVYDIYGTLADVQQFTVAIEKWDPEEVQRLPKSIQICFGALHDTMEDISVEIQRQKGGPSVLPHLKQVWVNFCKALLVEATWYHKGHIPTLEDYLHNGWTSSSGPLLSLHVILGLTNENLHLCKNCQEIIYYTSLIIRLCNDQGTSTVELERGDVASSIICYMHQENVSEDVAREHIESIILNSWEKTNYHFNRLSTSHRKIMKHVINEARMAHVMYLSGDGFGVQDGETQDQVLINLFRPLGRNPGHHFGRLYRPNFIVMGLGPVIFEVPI

TPS28 = target: T8, TPS28 (Solanum lycopersicum, UniProt G5CV47); experiment: in vitro assay, GC-MS of products; settings: product unidentified sesquiterpene
T8 construct: recombinant, E. coli pET32b or pET28a, His-tagged, purified
T8 sequence (G5CV47 1-554): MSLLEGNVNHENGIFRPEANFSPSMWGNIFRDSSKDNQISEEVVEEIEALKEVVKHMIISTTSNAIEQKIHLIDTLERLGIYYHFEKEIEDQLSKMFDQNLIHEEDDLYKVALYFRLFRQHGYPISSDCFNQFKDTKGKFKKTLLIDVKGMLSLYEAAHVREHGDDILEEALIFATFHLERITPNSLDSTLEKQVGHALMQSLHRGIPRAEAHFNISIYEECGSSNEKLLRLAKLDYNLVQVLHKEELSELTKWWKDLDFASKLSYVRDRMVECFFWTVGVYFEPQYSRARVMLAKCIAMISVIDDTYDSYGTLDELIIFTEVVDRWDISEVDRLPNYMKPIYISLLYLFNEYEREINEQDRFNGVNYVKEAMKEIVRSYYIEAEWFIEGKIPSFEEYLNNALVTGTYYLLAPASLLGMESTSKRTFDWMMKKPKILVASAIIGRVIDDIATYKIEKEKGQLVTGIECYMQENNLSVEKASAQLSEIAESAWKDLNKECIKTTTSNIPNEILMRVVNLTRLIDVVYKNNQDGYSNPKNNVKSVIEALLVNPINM

TPS33 = target: T9, TPS33 (Solanum lycopersicum, UniProt G5CV44); experiment: in vitro assay, GC-MS of products; settings: several sesquiterpene products
T9 construct: recombinant, E. coli pET32b or pET28a, His-tagged, purified
T9 sequence (G5CV44 1-552): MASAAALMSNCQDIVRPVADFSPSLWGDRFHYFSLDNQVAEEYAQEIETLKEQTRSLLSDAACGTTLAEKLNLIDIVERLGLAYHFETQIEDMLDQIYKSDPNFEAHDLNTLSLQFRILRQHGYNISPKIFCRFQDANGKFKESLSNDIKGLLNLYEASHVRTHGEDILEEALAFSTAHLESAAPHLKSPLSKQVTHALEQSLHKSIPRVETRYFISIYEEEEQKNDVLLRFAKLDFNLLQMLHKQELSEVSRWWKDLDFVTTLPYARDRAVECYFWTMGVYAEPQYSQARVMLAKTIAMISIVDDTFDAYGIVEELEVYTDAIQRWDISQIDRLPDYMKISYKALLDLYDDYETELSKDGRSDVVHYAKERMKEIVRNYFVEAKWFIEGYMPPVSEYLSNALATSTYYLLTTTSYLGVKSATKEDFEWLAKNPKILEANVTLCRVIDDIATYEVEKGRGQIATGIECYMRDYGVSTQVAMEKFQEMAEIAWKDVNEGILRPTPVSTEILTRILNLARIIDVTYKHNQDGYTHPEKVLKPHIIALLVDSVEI

TPS35 = target: T10, TPS35 (Solanum lycopersicum, UniProt G5CV43); experiment: in vitro assay, GC-MS of products; settings: product predominantly Z,Z-farnesol
T10 construct: recombinant, E. coli pET32b or pET28a, His-tagged, purified
T10 sequence (G5CV43 1-556): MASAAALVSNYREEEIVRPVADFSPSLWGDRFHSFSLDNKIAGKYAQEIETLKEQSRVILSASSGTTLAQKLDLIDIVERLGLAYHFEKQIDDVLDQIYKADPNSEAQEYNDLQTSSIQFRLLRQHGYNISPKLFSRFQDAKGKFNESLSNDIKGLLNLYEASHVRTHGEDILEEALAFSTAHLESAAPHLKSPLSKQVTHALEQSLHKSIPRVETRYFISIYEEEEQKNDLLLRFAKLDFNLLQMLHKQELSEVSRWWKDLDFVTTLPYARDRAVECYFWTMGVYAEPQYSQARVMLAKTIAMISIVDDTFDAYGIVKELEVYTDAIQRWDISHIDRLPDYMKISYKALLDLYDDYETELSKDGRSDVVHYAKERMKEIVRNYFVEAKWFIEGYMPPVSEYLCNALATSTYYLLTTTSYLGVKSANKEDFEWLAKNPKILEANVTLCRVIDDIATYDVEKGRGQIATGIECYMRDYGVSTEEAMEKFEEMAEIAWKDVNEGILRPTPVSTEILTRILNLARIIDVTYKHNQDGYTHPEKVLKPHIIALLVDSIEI

TPS36 = target: T11, TPS36 (Solanum lycopersicum, UniProt G5CV42); experiment: in vitro assay, GC-MS of products; settings: product mostly cis-muurola-3,5-diene
T11 construct: recombinant, E. coli pET32b or pET28a, His-tagged, purified, putative transit peptide removed (mitochondrial enzyme)
T11 sequence (G5CV42 entry or part of it): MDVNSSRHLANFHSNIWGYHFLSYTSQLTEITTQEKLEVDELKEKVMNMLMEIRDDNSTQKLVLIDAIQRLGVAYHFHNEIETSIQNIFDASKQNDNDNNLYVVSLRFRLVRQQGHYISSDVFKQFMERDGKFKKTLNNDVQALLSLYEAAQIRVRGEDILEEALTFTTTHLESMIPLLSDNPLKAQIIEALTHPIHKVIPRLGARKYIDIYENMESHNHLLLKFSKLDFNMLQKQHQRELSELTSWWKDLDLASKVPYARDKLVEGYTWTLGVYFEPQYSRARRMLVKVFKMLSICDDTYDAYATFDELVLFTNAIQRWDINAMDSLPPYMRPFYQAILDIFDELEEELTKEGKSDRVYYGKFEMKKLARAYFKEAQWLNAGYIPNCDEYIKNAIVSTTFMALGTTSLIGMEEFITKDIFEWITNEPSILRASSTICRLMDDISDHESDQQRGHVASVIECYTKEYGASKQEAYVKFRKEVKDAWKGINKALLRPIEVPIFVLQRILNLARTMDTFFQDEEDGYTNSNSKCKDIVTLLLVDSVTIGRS

T6 sequence (Q1A7S9 57-363): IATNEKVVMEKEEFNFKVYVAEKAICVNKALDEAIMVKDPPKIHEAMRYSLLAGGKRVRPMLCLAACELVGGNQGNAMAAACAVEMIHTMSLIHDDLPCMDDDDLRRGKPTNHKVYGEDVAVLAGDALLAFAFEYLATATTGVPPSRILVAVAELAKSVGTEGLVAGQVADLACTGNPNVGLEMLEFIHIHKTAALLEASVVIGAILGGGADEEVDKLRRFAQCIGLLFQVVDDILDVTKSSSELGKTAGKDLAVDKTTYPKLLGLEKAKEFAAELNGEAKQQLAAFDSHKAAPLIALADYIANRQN
T4 sequence (Q1A7T0 60-365): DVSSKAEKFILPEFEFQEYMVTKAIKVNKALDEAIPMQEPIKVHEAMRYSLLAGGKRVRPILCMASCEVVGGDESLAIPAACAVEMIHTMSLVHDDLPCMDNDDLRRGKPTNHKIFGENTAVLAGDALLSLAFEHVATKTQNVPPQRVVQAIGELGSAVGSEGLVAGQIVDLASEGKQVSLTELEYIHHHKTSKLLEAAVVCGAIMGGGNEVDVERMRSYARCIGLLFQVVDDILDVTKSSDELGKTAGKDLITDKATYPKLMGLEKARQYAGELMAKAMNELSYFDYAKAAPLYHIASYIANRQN

SMILES: CC(C)=CCC/C(C)=C/CC/C(C)=C/COP(=O)(O)OP(=O)(O)O [E,E-FPP]
- in vitro assay, GC-MS of products (TPS27): TPS27 had activity only with E,E-FPP to form α-farnesene
- in vitro assay, GC-MS of products (TPS52; product mostly E-nerolidol): catalysed the formation of mostly E-nerolidol from E,E-FPP
- in vitro assay, GC-MS of products (TPS51; product mostly E-nerolidol): catalysed the formation of mostly E-nerolidol from E,E-FPP

SMILES: CC(C)=CCOP(=O)(O)OP(=O)(O)O [DMAPP]
- in vitro prenyltransferase assay, products hydrolysed, GC-MS (GGPPS1): affinity-purified His-tagged recombinant proteins were incubated with IPP and DMAPP
- in vitro assay, headspace SPME GC-MS (TPS47): When tested in vitro, TPS47 catalysed the formation of isoprene from DMAPP
- in vitro prenyltransferase assay, products hydrolysed, GC-MS (GGPPS2): affinity-purified His-tagged recombinant proteins were incubated with IPP and DMAPP

SMILES: CC(C)=CCC/C(C)=C/COP(=O)(O)OP(=O)(O)O [GPP]
- in vitro assay, GC-MS of products (TPS25): TPS25 had activity only with GPP as the substrate, producing mostly β-ocimene

SMILES: CC(C)=CCC/C(C)=C\CC/C(C)=C\COP(=O)(O)OP(=O)(O)O [Z,Z-FPP]
- in vitro assay, GC-MS of products (TPS28): TPS28 and TPS48 also catalysed the formation of a major sesquiterpene from Z,Z-FPP
- in vitro assay, GC-MS of products (TPS33): When assayed with Z,Z-FPP, TPS33 made several sesquiterpenes
- in vitro assay, GC-MS of products (TPS52; several sesquiterpene products): α-bisabolene, β-bisabolene and Z-β-farnesene) from Z,Z-FPP
- in vitro assay, GC-MS of products (TPS51; several sesquiterpene products): α-bisabolene, β-bisabolene and Z-β-farnesene) from Z,Z-FPP
- in vitro assay, GC-MS of products (TPS35): while TPS35 made predominantly Z,Z-farnesol
- in vitro assay, GC-MS of products (TPS36): TPS36 only had activity using Z,Z-FPP and produced mostly cis-muurola-3,5-diene
